One data set has as its system Rin-5F cells. Nature of the data set: Anti-apoptotic efficacy, cycloheximid induced apoptosis. Type of data set: cell-based, rat. To be noted: 24 hours. The procedure: 40.000 Rin-5F cells were seeded per 96 well and cultivated for 2 days in RPMI supplemented with 1% L-Glutamin and 10% fetal calf serum. […] After 24 hours cell viability is quantified using AlamarBlue.

Data set [1] can be described thus: In vitro human plasma stability of GLP-1 CM peptides. To be noted: 20 ng/ml, 37° C., 3 hours. Type of data set: in vitro ADME. The procedure: Synthetic GLP-1 peptides (SEQ ID NO: 1syn, SEQ ID NO: 6syn, SEQ ID NO: 7rec, SEQ ID NO: 8syn) were incubated at concentrations of 20 ng/ml with human plasma at 37° C. and 5% CO2, for 3 hours. Dipeptidylpeptidase activity of the plasma was inhibited by a DPP-IV inhibitor (#DPP4, Biotrend).

Where no end group is shown, it is not given here.

GLP-1(7-37)-IP2-GLP-1(7-37) [CM1]: in the data set on Rin-5F cells (1 nM CM1, cycloheximid, serum free, AlamarBlue), the anti-apoptotic effect result was “significant anti-apoptotic effect”. Besides, the cell viability result in the data set with Rin-5F cells (CHX 10 μg/ml and 100 μg/ml, different concentrations of CM1) is recorded as “significant (p<0.01) increase of cell viability”.
“HAEGTFTSDVSSYLEGQAAKEFIAWLVKGRGRRDFPEEVAIAEELG [SEQ ID NO:8, GLP-1(7-37)-IP2]”: the “stability in human plasma in vitro (active GLP)” value in data set [1] is given as “significantly stabilized”.

B1: GLP-1(7-37)-IP2-RR-GLP2 (protein)
chain: HAEGTFTSDVSSYLEGQAAKEFIAWLVKGRGRRDFPEEVAIAEELGRRHADGSFSDEMSTILDNLATRDFINWLIQTKITDKK
modifications: Description of sequence SEQ ID No 7 (ID7rec, CM2) corresponds to GLP-1(7-37)-IP2-RR-GLP2, 83 aa, 9.4 kD
Consider B1, for which, in data set [1], the “stability in human plasma in vitro (active GLP)” value is “significantly stabilized”.
